Assay results published in patent publication US20220313698A1, “MODULATORS OF CYSTIC FIBROSIS TRANSMEMBRANE CONDUCTANCE REGULATOR” (Vertex Pharmaceuticals Incorporated, priority 2019, published 2022).

Molecular target: CFTR-mediated chloride transport (Homo sapiens, UniProt P13569)
Experiment: Corrector Assay A - membrane potential dye assay (enteroid cells)
Conditions: for Corrector Assay A % activity: % of chloride transport of triple combination control (1 μM (14S)-dispiro macrocycle + 3 μM tezacaftor + 300 nM ivacaftor); for EC50: read-out: Corrector Assay A EC50, human intestinal enteroid cells, 18-24 h incubation, acute 10 μM forskolin + 300 nM ivacaftor

CC1(C)C[C@@H]2CC[C@H](c3ccccn3)Nc3cccc(n3)S(=O)(=O)NC(=O)c3ccc(C4CCC(F)(F)CC4)nc3N1C2 [Compound 324, (14S,17R)-8-(4,4-Difluorocyclohexyl)-12,12-dimethyl-17-(pyridin-2-yl)-2λ^6-thia-3,9,11,18,23-pentaazatetracyclo[17.3.1.111,14.05,10]tetracosa-1(22),5,7,9,19(23),20-hexaene-2,2,4-trione]
Corrector Assay A % activity: +++ (+++ is >60%) | EC50: < 1000 nM

CC(C)(C)c1ccc2c(n1)N1CC(CC1(C)C)OCCNc1cccc(n1)S(=O)(=O)NC2=O (single isomer, unassigned) [Compound 258, 8-tert-butyl-12,12-dimethyl-15-oxa-2λ^6-thia-3,9,11,18,23-pentaazatetracyclo[17.3.1.111,14.05,10]tetracosa-1(22),5(10),6,8,19(23),20-hexaene-2,2,4-trione]
Corrector Assay A % activity: + (+ is <30%)

CC(C)(C)/C=C/c1ccc2c(n1)N1C[C@@H](CC[C@H](c3ccccn3)Nc3cccc(n3)S(=O)(=O)NC2=O)CC1(C)C [Compound 106, (14S,17R)-8-[(1E)-3,3-dimethylbut-1-en-1-yl]-12,12-dimethyl-17-(pyridin-2-yl)-2λ^6-thia-3,9,11,18,23-pentaazatetracyclo[17.3.1.111,14.05,10]tetracosa-1(22),5,7,9,19(23),20-hexaene-2,2,4-trione]
Corrector Assay A % activity: +++ (+++ is >60%) | EC50: < 1000 nM

Cc1cccc2cc3c(nc12)N1C[C@@H](CCC(c2cc(C(C)(C)C)ccn2)Nc2cccc(n2)S(=O)(=O)NC3=O)CC1(C)C (single isomer, unassigned) [Compound 3]
Corrector Assay A % activity: +++ (+++ is >60%) | EC50: < 1000 nM

CC(C)(C)c1ccc2c(n1)N1CC(CCCNc3cncc(n3)S(=O)(=O)NC2=O)CC1(C)C (single isomer, unassigned) [Compound 253, 8-tert-Butyl-12,12-dimethyl-2λ^6-thia-3,9,11,18,21,23-hexaazatetracyclo[17.3.1.111,14.05,10]tetracosa-1(22),5,7,9,19(23),20-hexaene-2,2,4-trione]
Corrector Assay A % activity: + (+ is <30%) | EC50: > 3000 nM

CC(C)(C)c1ccc2c(n1)N1C[C@@H](CCC(c3ccc(C4CC4)cn3)Nc3cccc(n3)S(=O)(=O)NC2=O)CC1(C)C (some centres unmarked) [Compound 169]
Corrector Assay A % activity: ++ (++ is 30-60%) | EC50: < 1000 nM

CC(C)C1CC[C@@H]2CN(c3nc(-n4ccc(OCCC5C6(CC6)C56CC6)n4)ccc3C(=O)NS(=O)(=O)c3cccc(n3)N1)C(C)(C)C2 (single isomer, unassigned) [Compound 354]
Corrector Assay A % activity: +++ (+++ is >60%) | EC50: < 1000 nM

COC(=O)NCc1cccc([C@H]2CC[C@@H]3CN(c4nc(C(C)(C)C)ccc4C(=O)NS(=O)(=O)c4cccc(n4)N2)C(C)(C)C3)n1 [Compound 101, Methyl N-({6-[(14S,17R)-8-tert-butyl-12,12-dimethyl-2,2,4-trioxo-2λ^6-thia-3,9,11,18,23-pentaazatetracyclo[17.3.1.111,14.05,10]tetracosa-1(22),5,7,9,19(23),20-hexaen-17-yl]pyridin-2-yl}methyl)carbamate]
Corrector Assay A % activity: ++ (++ is 30-60%) | EC50: < 1000 nM

CC(C)(C)OC(=O)N1CCC(c2ccnc(C3CC[C@@H]4CN(c5nc(C(C)(C)C)ccc5C(=O)NS(=O)(=O)c5cccc(n5)N3)C(C)(C)C4)c2)CC1 (stereo partly drawn) [Compound 117, tert-butyl 4-{2-[(14S)-8-tert-butyl-12,12-dimethyl-2,2,4-trioxo-2λ^6-thia-3,9,11,18,23-pentaazatetracyclo[17.3.1.111,14.05,10]tetracosa-1(23),5(10),6,8,19,21-hexaen-17-yl]pyridin-4-yl}piperidine-1-carboxylate]
Corrector Assay A % activity: +++ (+++ is >60%) | EC50: < 1000 nM

CC(C)(C)c1ccc2c(n1)N1C[C@@H](CC[C@H](c3cccc(CNCC(F)(F)F)n3)Nc3cccc(n3)S(=O)(=O)NC2=O)CC1(C)C [Compound 50, (14S,17R)-8-tert-Butyl-12,12-dimethyl-17-(6-{[(2,2,2-trifluoroethyl)amino]methyl}pyridin-2-yl)-2λ^6-thia-3,9,11,18,23-pentaazatetracyclo[17.3.1.111,14.05,10]tetracosa-1(22),5,7,9,19(23),20-hexaene-2,2,4-trione]
Corrector Assay A % activity: +++ (+++ is >60%) | EC50: 1000 to 3000 nM

CC(C)(C)c1ccc2c(n1)N1C[C@@H](CC[C@@H](c3cccc(C4=CCNCC4)n3)Nc3cccc(n3)S(=O)(=O)NC2=O)CC1(C)C [Compound 141]
Corrector Assay A % activity: ++ (++ is 30-60%) | EC50: 1000 to 3000 nM

CC(C)(C)c1ccc2c(n1)N1C[C@@H](CCC(c3ccc(Cl)cn3)Nc3cccc(n3)S(=O)(=O)NC2=O)CC1(C)C (single isomer, unassigned) [Compound 209]
Corrector Assay A % activity: ++ (++ is 30-60%) | EC50: < 1000 nM

Cn1nccc1C1CC[C@@H]2CN(c3nc(C(C)(C)C)ccc3C(=O)NS(=O)(=O)c3cccc(n3)N1)C(C)(C)C2 (single isomer, unassigned) [Compound 285]
Corrector Assay A % activity: +++ (+++ is >60%) | EC50: < 1000 nM

CC(C)C1CC[C@@H]2CN(c3nc(-n4ccc(OCCC5(C(F)(F)F)CC5)n4)ccc3C(=O)NS(=O)(=O)c3cccc(n3)N1)C(C)(C)C2 (single isomer, unassigned) [Compound 357]
Corrector Assay A % activity: +++ (+++ is >60%) | EC50: < 1000 nM

CC(C)(C)c1ccc2c(n1)N1C[C@@H](CCC(c3ccc(CCCN)cn3)Nc3cccc(n3)S(=O)(=O)NC2=O)CC1(C)C (stereo partly drawn) [Compound 138, (14S)-17-[5-(3-aminopropyl)pyridin-2-yl]-8-tert-butyl-12,12-dimethyl-2λ^6-thia-3,9,11,18,23-pentaazatetracyclo[17.3.1.111,14.05,10]tetracosa-1(23),5(10),6,8,19,21-hexaene-2,2,4-trione]
Corrector Assay A % activity: ++ (++ is 30-60%) | EC50: < 1000 nM

CC1(C)C[C@@H]2CC[C@H](c3ccccn3)Nc3cccc(n3)S(=O)(=O)NC(=O)c3ccc(N4CCN(CC5CC5)C4=O)nc3N1C2 [Compound 331]
Corrector Assay A % activity: +++ (+++ is >60%) | EC50: < 1000 nM

CC(C)(C)c1ccc2c(n1)N1CC(CCC(C(C)(C)O)Nc3cccc(n3)S(=O)(=O)NC2=O)CC1(C)C (centres unmarked) [Compound 13]
Corrector Assay A % activity: ++ (++ is 30-60%) | EC50: < 1000 nM

CN1CCN(c2cccc([C@H]3CC[C@@H]4CN(c5nc(C(C)(C)C)ccc5C(=O)NS(=O)(=O)c5cccc(n5)N3)C(C)(C)C4)n2)CC1 [Compound 195, (14S,17R)-8-tert-butyl-12,12-dimethyl-17-[6-(4-methylpiperazin-1-yl)pyridin-2-yl]-2λ^6-thia-3,9,11,18,23-pentaazatetracyclo[17.3.1.111,14.05,10]tetracosa-1(22),5,7,9,19(23),20-hexaene-2,2,4-trione]
Corrector Assay A % activity: +++ (+++ is >60%) | EC50: < 1000 nM
